Source: patent publication US20100267561A1, “HERBICIDAL PYRIDAZINONE DERIVATIVES” (priority 2007, published 2010)
Where two headings read alike, the source gives them in different places.

Legend:
Format in all cases: in vivo
[1] = test system: rice (Oryza sativa); experiment: Test B flooded paddy test plant response
In short: (§1)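 Rice, umbrella sedge, ducksalad and barnyardgrass at 2-leaf stage; pots flooded to 3 cm, compounds applied into paddy water, depth held throughout. Greenhouse 13 to 15 days, then visual rating vs untreated controls on 0–100 scale (0 no effect, 100 complete control); dash means no test result.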

[2] = test system: ducksalad (Heteranthera limosa); experiment: Test B flooded paddy test plant response
In short: as §1

[3] = test system: barnyardgrass (Echinochloa crus-galli); experiment: Test B flooded paddy test plant response
In short: as §1

[4] = test system: umbrella sedge (Cyperus difformis); experiment: Test B flooded paddy test plant response
In short: as §1

[5] = test system: large crabgrass (Digitaria sanguinalis); experiment: Test A pre-/postemergence plant response; conditions: for pest or weed control at 31 g/ha / pest or weed control at 125 g/ha: Digitaria sanguinalis, 240 h, read-out: Plant response rating, Crabgrass, Large
In short: (§2)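 Seeds were planted in blended loam soil and sand, then treated preemergence by directed soil spray. At that time, emerged plants (one- to two-leaf, 2–10 cm) received postemergence applications of the same surfactant-containing formulation. Injury was assessed visually on a 0–100 scale after approximately 10 days.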

[6] = test system: velvetleaf (Abutilon theophrasti); experiment: Test A pre-/postemergence plant response
In short: as §2

[7] = test system: morningglory (Ipomoea coccinea); experiment: Test A pre-/postemergence plant response
In short: as §2

[8] = test system: barnyardgrass (Echinochloa crus-galli); experiment: Test A pre-/postemergence plant response; conditions: for pest or weed control at 31 g/ha / pest or weed control at 125 g/ha: Echinochloa crus-galli, 240 h, read-out: Plant response rating, Barnyardgrass
In short: as §2

[9] = test system: wheat (Triticum aestivum); experiment: Test A pre-/postemergence plant response; conditions: for plant injury at 31 g/ha / plant injury at 125 g/ha: Triticum aestivum, 240 h, read-out: Plant response rating, Wheat
In short: as §2

[10] = test system: pigweed (Amaranthus retroflexus); experiment: Test A pre-/postemergence plant response; conditions: for pest or weed control at 31 g/ha / pest or weed control at 125 g/ha: Amaranthus retroflexus, 240 h, read-out: Plant response rating, Pigweed
In short: as §2

[11] = test system: winter barley (Hordeum vulgare); experiment: Test B postemergence plant response; conditions: for Barley plant response rating: 8 g ai/ha, postemergence, 0-100 scale; for Plant response rating, Barley: Postemergence, scale 0 to 100, 0 no effect, 100 complete control
Description: (§3) At the same time, plants selected from these crop and weed species and also winter barley (Hordeum vulgare), canarygrass (Phalaris minor), chickweed (Stellaria media) and windgrass (Apera spica-venti) were treated with postemergence applications of some of the test chemicals formulated in the same manner. Plants ranged in height from 2 to 18 cm (1- to 4-leaf stage) for postemergence treatments.
(§4) Plant species in the flooded paddy test consisted of rice (Oryza sativa), umbrella sedge (Cyperus difformis), ducksalad (Heteranthera limosa) and barnyardgrass (Echinochloa crus-galli) grown to the 2-leaf stage for testing. At time of treatment, test pots were flooded to 3 cm above the soil surface, treated by application of test compounds directly to the paddy water, and then maintained at that water depth for the duration of the test. Treated plants and controls were maintained in a greenhouse for 13 to 15 days, after which time all species were compared to controls and visually evaluated. Plant response ratings, summarized in Table B, are based on a scale of 0 to 100 where 0 is no effect and 100 is complete control. A dash (-) response means no test result.

[12] = test system: canarygrass (Phalaris minor); experiment: Test B postemergence plant response; conditions: for Canarygrass plant response rating: 8 g ai/ha, postemergence, 0-100 scale; for Plant response rating, Canarygrass: Postemergence
Description: as §3, §4

[13] = test system: windgrass (Apera spica-venti); experiment: Test B postemergence plant response; conditions: for Windgrass plant response rating: postemergence, 0-100 scale; for Plant response rating, Windgrass: Postemergence
Description: as §3, §4

[14] = test system: chickweed (Stellaria media); experiment: Test B postemergence plant response; conditions: for Chickweed plant response rating: 8 g ai/ha, postemergence, 0-100 scale; for Plant response rating, Chickweed: Postemergence
Description: as §3, §4

[15] = Flood (flooded paddy test), 62 g ai/ha, scale 0 to 100, 0 no effect, 100 complete control
[16] = Flood (flooded paddy test), 125 g ai/ha, scale 0 to 100, 0 no effect, 100 complete control
[17] = Flood (flooded paddy test), 250 g ai/ha, scale 0 to 100, 0 no effect, 100 complete control
[18] = Flood, 31 g ai/ha, scale 0 to 100
[19] = Postemergence, 31 g ai/ha, 0 to 100 scale, 0 no effect, 100 complete control
[20] = Postemergence, 125 g ai/ha, 0 to 100 scale, 0 no effect, 100 complete control
[21] = Preemergence, 31 g ai/ha, 0 to 100 scale, 0 is no effect, 100 is complete control
[22] = Preemergence, 125 g ai/ha, 0 to 100 scale (0 no effect, 100 complete control)
[23] = 62 g ai/ha, scale 0 to 100, 0 no effect, 100 complete control
[24] = post-emergence, Postemergence, 31 g ai/ha, 0 to 100 scale (0 no effect, 100 complete control)
[25] = post-emergence, Postemergence, 125 g ai/ha, 0 to 100 scale, 0 no effect, 100 complete control
[26] = pre-emergence, Preemergence, 31 g ai/ha, 0 to 100 scale, 0 is no effect, 100 is complete control
[27] = pre-emergence, Preemergence, 125 g ai/ha, 0 to 100 scale (0 no effect, 100 complete control)

With Cc1cc(-c2ccc(Cl)cc2)nn1-c1c(OS(=O)(=O)c2ccc(Cl)s2)cnn(C)c1=O [Compound 55] the “Plant response rating, Rice” value [1, 15] was 0, the “Plant response rating, Rice” value [1, 16] was 0 and the “Plant response rating, Rice” value [1, 17] was 30. For the same compound, the “Plant response rating, Rice” value [1, 18] was 0, the “Plant response rating, Ducksalad” value [2, 15] was 0 and the “Plant response rating, Ducksalad” value [2, 16] was 0. The “Plant response rating, Ducksalad” value [2, 17] was 75, the “Plant response rating, Ducksalad” value [2, 18] was 0 and the “Plant response rating, Barnyardgrass” value [3, 15] was 0. The “Plant response rating, Barnyardgrass” value [3, 16] was 0, the “Plant response rating, Barnyardgrass” value [3, 17] was 65 and the “Plant response rating, Barnyardgrass” value [3, 18] was 0. The “Plant response rating, Sedge, Umbrella” value [4, 15] was 70, the “Plant response rating, Sedge, Umbrella” value [4, 16] was 75 and the “Plant response rating, Sedge, Umbrella” value [4, 17] was 80. For the same compound, the “Plant response rating, Sedge, Umbrella” value [4, 18] was 45, the “Plant response rating, Crabgrass, Large” value [5, 19] was 10 and the “Plant response rating, Crabgrass, Large” value [5, 20] was 60. For the same compound, the “Plant response rating, Crabgrass, Large” value [5, 21] was 20, the “Plant response rating, Crabgrass, Large” value [5, 22] was 80 and the “Plant response rating, Velvetleaf” value [6, 19] was 0. For the same compound, the “Plant response rating, Velvetleaf” value [6, 20] was 0, the “Plant response rating, Velvetleaf” value [6, 21] was 0 and the “Plant response rating, Velvetleaf” value [6, 22] was 0. The “Plant response rating, Morningglory” value [7, 19] was 0, the “Plant response rating, Morningglory” value [7, 20] was 0 and the “Plant response rating, Morningglory” value [7, 21] was 0. The “Plant response rating, Morningglory” value [7, 22] was 0, the “Plant response rating, Barnyardgrass” value [8, 19] was 0 and the “Plant response rating, Barnyardgrass” value [8, 20] was 30. For the same compound, the “Plant response rating, Barnyardgrass” value [8, 21] was 0, the “Plant response rating, Barnyardgrass” value [8, 22] was 80 and the “Plant response rating, Wheat” value [9, 19] was 0. The “Plant response rating, Wheat” value [9, 20] was 30, the “Plant response rating, Wheat” value [9, 21] was 0 and the “Plant response rating, Wheat” value [9, 22] was 50. For the same compound, the “Plant response rating, Pigweed” value [10, 19] was 0, the “Plant response rating, Pigweed” value [10, 20] was 0 and the “Plant response rating, Pigweed” value [10, 21] was 0. The “Plant response rating, Pigweed” value [10, 22] was 0.
For CCc1cc(-c2ccc(Br)cc2)nn1-c1c(O)c(C)nn(C)c1=O [Compound 74], the “Plant response rating, Crabgrass, Large” value [5, 19] was 60, the “Plant response rating, Crabgrass, Large” value [5, 20] was 100 and the “Plant response rating, Crabgrass, Large” value [5, 21] was 50. For the same compound, the “Plant response rating, Crabgrass, Large” value [5, 22] was 90, the “Plant response rating, Barnyardgrass” value [8, 19] was 100 and the “Plant response rating, Barnyardgrass” value [8, 20] was 100. For the same compound, the “Plant response rating, Barnyardgrass” value [8, 21] was 100, the “Plant response rating, Barnyardgrass” value [8, 22] was 100 and the “Plant response rating, Wheat” value [9, 19] was 70. The “Plant response rating, Wheat” value [9, 20] was 80, the “Plant response rating, Wheat” value [9, 21] was 20 and the “Plant response rating, Wheat” value [9, 22] was 60. The “Plant response rating, Pigweed” value [10, 19] was 0, the “Plant response rating, Pigweed” value [10, 20] was 0 and the “Plant response rating, Pigweed” value [10, 21] was 0. The “Plant response rating, Pigweed” value [10, 22] was 0, the “Barley plant response rating” value [11] was 20 and the “Plant response rating, Barley” value ([11]; 16 g ai/ha) was 40. For the same compound, the “Plant response rating, Barley” value ([11]; 31 g ai/ha) was 95, the “Plant response rating, Barley” value ([11]; 62 g ai/ha) was 95 and the “Canarygrass plant response rating” value [12] was 80. The “Plant response rating, Canarygrass” value ([12]; 16 g ai/ha, scale 0 to 100) was 90, the “Plant response rating, Canarygrass” value ([12]; 31 g ai/ha, scale 0 to 100) was 100 and the “Plant response rating, Canarygrass” value [12, 23] was 100. For the same compound, the “Windgrass plant response rating” value ([13]; 8 g ai/ha) was 85, the “Windgrass plant response rating” value ([13]; 16 g ai/ha) was 90 and the “Plant response rating, Windgrass” value ([13]; 31 g ai/ha, scale 0 to 100) was 100. The “Plant response rating, Windgrass” value [13, 23] was 100, the “Chickweed plant response rating” value [14] was 0 and the “Plant response rating, Chickweed” value ([14]; 16 g ai/ha, scale 0 to 100) was 0. The “Plant response rating, Chickweed” value ([14]; 31 g ai/ha, scale 0 to 100) was 0 and the “Plant response rating, Chickweed” value [14, 23] was 0.
Work on Cc1nn(C)c(=O)c(-c2nc(-c3ccc(Cl)cc3)sc2C)c1O [Compound 79, 4-[2-(4-chlorophenyl)-5-methyl-4-thiazolyl]-5-hydroxy-2,6-dimethyl-3(2H)-pyridazinone] yielded a pest or weed control at 31 g/ha [5, 24] of 30%, a pest or weed control at 125 g/ha [5, 25] of 50% and a pest or weed control at 31 g/ha [5, 26] of 10%. For the same compound, the pest or weed control at 125 g/ha [5, 27] was 100%, the pest or weed control at 31 g/ha [8, 24] was 0% and the pest or weed control at 125 g/ha [8, 25] was 50%. It also gave a pest or weed control at 31 g/ha [8, 26] of 0%, a pest or weed control at 125 g/ha [8, 27] of 100% and a plant injury at 31 g/ha [9, 24] of 0%. It also gave a plant injury at 125 g/ha [9, 25] of 50%, a plant injury at 31 g/ha [9, 26] of 0% and a plant injury at 125 g/ha [9, 27] of 60%. The pest or weed control at 31 g/ha [10, 24] was 0%, the pest or weed control at 125 g/ha [10, 25] was 0% and the pest or weed control at 31 g/ha [10, 26] was 0%. The pest or weed control at 125 g/ha [10, 27] was 0%, the “Barley plant response rating” value [11] was 0 and the “Plant response rating, Barley” value ([11]; 16 g ai/ha) was 10. The “Plant response rating, Barley” value ([11]; 31 g ai/ha) was 30, the “Plant response rating, Barley” value ([11]; 62 g ai/ha) was 40 and the “Canarygrass plant response rating” value [12] was 10. The “Plant response rating, Canarygrass” value ([12]; 16 g ai/ha, scale 0 to 100) was 55, the “Plant response rating, Canarygrass” value ([12]; 31 g ai/ha, scale 0 to 100) was 85 and the “Plant response rating, Canarygrass” value [12, 23] was 95. For the same compound, the “Windgrass plant response rating” value ([13]; 8 g ai/ha) was 0, the “Windgrass plant response rating” value ([13]; 16 g ai/ha) was 50 and the “Plant response rating, Windgrass” value ([13]; 31 g ai/ha, scale 0 to 100) was 50. The “Plant response rating, Windgrass” value [13, 23] was 70, the “Chickweed plant response rating” value [14] was 0 and the “Plant response rating, Chickweed” value ([14]; 16 g ai/ha, scale 0 to 100) was 0. For the same compound, the “Plant response rating, Chickweed” value ([14]; 31 g ai/ha, scale 0 to 100) was 0 and the “Plant response rating, Chickweed” value [14, 23] was 0.
